Literature values as cited in patent US20260191920A1, “METHODS AND COMPOSITIONS FOR TREATING AND PREVENTING CENTRAL NERVOUS SYSTEM DISORDERS AND OTHER CONDITIONS CAUSED BY GUT MICROBIAL DYSBIOSIS” (HOLOBIOME, INC., priority 2019, published 2026).

Experiments:
[1] = test system: (Q+)tRNA^His and (Q+)tRNA^Asn in the liver; settings: queuine-deficient mice, intraperitoneal, 325 micrograms per injection, 24 h apart; cited from earlier work
germ-free mice = settings: chemically synthesized queuine at 0.1 μM in the diet; cited from earlier work
[2] = by day 6, mice pretreated with oral antibiotics, regardless of diet; cited from earlier work

Structure (SMILES)	(Q+)tRNA^His and (Q+)tRNA^Asn percentages in the liver [1]	effect on adverse health effects and death of tyrosine- and queuine-deprived germ-free mice (germ-free mice)	fraction of ingested dose eliminated [2]
Nc1nc2[nH]cc(CN[C@H]3C=C[C@H](O)[C@@H]3O)c2c(=O)[nH]1 [queuine, 2-amino-5-((((1S,4S,5R)-4,5-dihydroxy-2-cyclopenten-1-yl)amino)methyl)-1,7-dihydro-4H-pyrrolo (2,3-d) pyrimidin-4-one]	corresponding increase	prevented emergence of these deleterious effects	–
[CH3][Hg][Cl] [methylmercury]	–	–	0-6%
